Tests used:
whole blood = experiment: Whole blood cultured in vitro, GC gene signature (ssGSEA) score; type: cell-based, human
From the text: Many of these genes were known glucocorticoid-regulated genes (Chinenov Y, et. al., BMC Genomics 2014; 15:656). […] Network analysis of the regulated genes indicated enrichment for immune-response pathways. Single-sample gene set enrichment analysis (ssGSEA) algorithm was used to generate a composite score (or gene signature) for enrichment of these genes in the transcriptomes of individual samples (Barbie D A, et. al. Nature 2009; 462:108-12).
For profiling of whole blood, anticoagulant citrate dextrose solution A-containing whole blood from 4 normal healthy volunteers was cultured with either DMSO vehicle, 200 nM prednisolone, 1 μM prednisolone, 5 μM prednisolone, 5 μM GR modulators BMS-791826, or 10 μM BMS-776532 for 5 hours, followed by transfer to a PAXgene tube. Total RNA was isolated, and then treated with DNase I and cleaned up using a Qiagen RNeasy MinElute Cleanup Kit. RNA concentrations were determined using NanoDrop (Thermo Fisher Scientific, Waltham, Mass., USA) and RNA quality was evaluated using the Experion electrophoresis system (Bio-Rad Laboratories, Hercules, Calif., USA). All target labeling reagents were purchased from Affymetrix (West Sacramento, Calif., USA).
Double-stranded cDNAs were synthesized from 1 μg of total RNA through reverse transcription with an oligo-dT primer containing the T7 RNA polymerase promoter and double-strand conversion using the cDNA Synthesis System (Invitrogen, Carlsbad, Calif., USA). Biotin-labeled cRNA was generated from the cDNA and used to probe a Human Genome HT_HG-U133A plate (Affymetrix, Sunnyvale, Calif., USA), consisting of 96 single HG-U133A arrays in a 96-well plate. All cDNA and cRNA target preparation steps were processed on a Caliper GeneChip Array Station from Affymetrix. Array hybridization, washing, and scanning were performed according to the manufacturer's recommendations. […]

[1] = tested on: peripheral blood mononuclear cells (PBMCs); experiment: Gene expression profiling of PBMCs cultured with prednisolone or DMSO (Affymetrix); type: cell-based, human; conditions: 1 μM prednisolone, 6 hours
Method: In order to monitor glucocorticoid-dependent responses in peripheral blood, genes modulated by prednisolone in human PBMCs were identified. PBMCs from 10 independent normal healthy volunteer donors were treated with either DMSO control or 1 μM prednisolone for 6 hours.
Lymphocytes were isolated from the blood of 10 independent donors using Ficoll gradient centrifugation. Cells were cultured at 5 million lymphocytes/well of a 96-well flat-bottom block plate (Qiagen, Hilden, Germany) in 500 μl assay media (RPMI-1640 with GlutaMAX, 10% charcoal-stripped fetal bovine serum; Gibco Laboratories, Gaithersburg, Md., USA). Cells were cultured for 6 hours with either dimethyl sulfoxide (DMSO) vehicle or 1 μM prednisolone. After 6 hours, cells were pelleted and resuspended in 1 ml nucleic acid purification lysis solution (Applied Biosystems, Foster City, Calif., USA) diluted 1:2 with calcium and magnesium-free phosphate-buffered saline (Invitrogen, Carlsbad, Calif., USA). Cells were incubated in lysis buffer for 10 min at room temperature followed by storage at −80° C. RNA was isolated using the Qiagen RNeasy isolation kit according to manufacturer's instructions. […]

[2] = tested on: GC gene signature in whole blood; experiment: In vivo GC gene signature, Prednisoline in Healthy Male Cohort 2; set-up: species or system human; conditions: normal healthy volunteers, oral, 10 mg prednisolone or 150 or 300 mg BMS-791826, 4 hours post-dosing, versus pre-dose and placebo (FIG. 3A)
Method: (§1) Since the glucocorticoid (GC) signature accurately captured glucocorticoid receptor (GR) agonist activity in vitro, the behavior of the GC gene signature in vivo was tested. Normal healthy volunteers (NHV) were dosed with placebo, 10 mg prednisolone, or 150 or 300 mg GR modulator BMS-791826. Blood was drawn before and 4 hours post-dosing, and RNA was analyzed by Affymetrix gene expression profiling. […] To address the kinetics of the GC gene signature response, whole blood RNA profiles from NHVs who were administered different doses of prednisolone was analyzed. […] For all but the highest dose of prednisolone, GC gene signature scores had returned to baseline levels by 8 hours post-dose. The signature score was at baseline levels in all groups by 48 hours post-dosing.
To score an individual sample by the enrichment level of GC gene signatures, we adapted the single-sample gene set enrichment analysis (ssGSEA) algorithm (Barbie D A, et. al., Nature 2009; 462:108-12) to generate a composite score, which was implemented using the Gene Set Variation Analysis package in R (version 3.4.0, Hanzelmann S, et. al., BMC Bioinformatics 2013; 14:7). The algorithm was modified so that enrichment scores fell between −1 and 1, representing the lowest to the highest possible rankings of GC genes in the transcriptome. […]

[3] = tested on: glucocorticoid-regulated genes in whole blood; experiment: Whole blood induction of single genes, prednisolone versus placebo, Prednisoline in Healthy Male cohort 2; type: in vivo, human
From the text: Further refinement of the 64 member gene signature would facilitate implementation in the clinic. […] The list was further filtered for detectable expression in the abatacept SLE trial. Of the initial 64 genes, 18 (FKBP5, ECHDC3, IL1R2, ZBTB16, IRS2, IRAK3, ACSL1, DUSP1, PHC2, TLR2, TSC22D3, SLA, CRISPLD2, MAN2A2, FAR2, CEBPD, SPTLC2, HSPA6) met these criteria. The top 3 genes (FKBP5, ECHDC3 and IL1R2), top 6 genes (FKBP5, ECHDC3 IL1R2, ZBTB16, IRS2, IRAK3) and top 8 genes (FKBP5, ECHDC3, IL1R2, ZBTB16, IRS2, IRAK3, ACSL1, DUSP1) from the list were then used to calculate ssGSEA scores.
CEL files from the Affymetrix Array Station were processed and normalized using the Robust Multi-Array Average (RMA) algorithm (Gautier I, et. al., Bioinformatics 2004; 20:307-15) using the “Affy” package in R (version 3.2.1; 16) and Bioconductor (Gentleman R C, et. al. Genome Biol. 2004, 5 (10):R80) with custom CDF files from BrainArray (version 18.0.0; Dai M, et. al., Nucleic Acids Res 2005; 33:e175). Differential gene expression analysis was run to compare gene expression levels in prednisolone-treated versus control samples, using a moderated t-test (Ritchie M E, et. al., Nucleic Acids Res 2015; 43:e47) in Array Studio (OmicSoft, Cary, N.C., USA). P values were adjusted using the multiple test correction method which is also called false discovery rate (FDR, Benjamini Y, et. al., J. Royal Statistical Soc., Series B 1995; 57:289).
Male normal healthy volunteers were randomly assigned to receive either a placebo of polyethylene glycol (PEG)-400 solution (4 participants); a single daily oral dose of GR modulator BMS-791826 (150 or 300 mg) as a PEG-400 solution (6 participants/dose); or a single daily dose of 10 mg prednisolone (4 participants) for 3 consecutive days. PAXgene tubes were collected before dosing and at 4 hours post-dose on day 1.

[4] = tested on: GC gene signature in whole blood; experiment: In vivo GC gene signature kinetics, Prednisoline in Healthy Male Cohort 1; set-up: species or system human
Method: as §1
To score an individual sample by the enrichment level of GC gene signatures, we adapted the single-sample gene set enrichment analysis (ssGSEA) algorithm (Barbie D A, et. al., Nature 2009; 462:108-12) to generate a composite score, which was implemented using the Gene Set Variation Analysis package in R (version 3.4.0, Hanzelmann S, et. al., BMC Bioinformatics 2013; 14:7). The algorithm was modified so that enrichment scores fell between −1 and 1, representing the lowest to the highest possible rankings of GC genes in the transcriptome.
Male normal healthy volunteers were randomly assigned (6 participants/group) to receive daily doses of 5, 10, or 30 mg prednisolone for 7 days. Two participants received placebo. PAXgene tubes were collected before dosing and at 2, 4, 8, 48, 144, and 216 hours post-dose.

[5] = tested on: GC gene signature in whole blood; experiment: GC gene signature in baseline samples of the abatacept SLE phase II trial by reported prednisone dose; type: in vivo, human; conditions: SLE patients, dose high (>30 mg), medium (10-30 mg), low (<10 mg) (FIG. 4B)
Method: To determine if the glucocorticoid signature could differentiate between patients based on treatment status, expression of the signature in cross-sectional cohorts of patients with SLE or RA were analyzed. Relative to either normal healthy controls or patients treated with other standard-of-care medications, the patients with SLE or RA who were prescribed glucocorticoids had elevated signature scores (FIG. 4A). While the glucocorticoid signatures were elevated, there was significant inter-patient variability in the signature scores. Baseline samples from a phase II study of abatacept in SLE was analyzed (Fleishaker D L, et. al., BMC Musculoskelet Disord 2016; 17:29) for expression of the glucocorticoid gene signature (FIG. 4B). […] However, there was again significant inter-patient variability in glucocorticoid gene signature scores in all groups. This could reflect steroid resistance in some patients or compliance issues with some patients.
Baseline PAXgene collections and complete blood counts were obtained from 144 adults with SLE meeting the criteria of a British Isles Lupus Assessment Group (BILAG) score of A or B. The population at baseline consisted of 53% of patients with polyarthritis, 35% with discoid lupus, and 12% with serositis. […]

## C[C@]12C=CC(=O)C=C1CC[C@@H]1[C@@H]2[C@@H](O)C[C@@]2(C)[C@H]1CC[C@]2(O)C(=O)CO [prednisolone]
Whole blood; 5 μM prednisolone, 5 μM BMS-791826, 10 μM BMS-776532, 5 hours (FIG. 2E)
  glucocorticoid gene signature score, rank order: prednisolone>BMS-791826>BMS-776532
Whole blood; whole blood, different concentrations of prednisolone, 5 hours (FIG. 1C)
  ssGSEA score for the upregulated genes: increased dose dependently
Whole blood; whole blood, different concentrations of prednisolone, 5 hours (FIG. 1D)
  expression of the downregulated genes (ssGSEA score): decreased in a dose-dependent manner
[1]; FDR-adjusted P ≤0.05, genes of FIG. 1A
  fold change of upregulated genes versus vehicle: > 2 fold
[1]; FDR-adjusted P ≤0.05, genes of FIG. 1B
  fold change of downregulated genes versus vehicle: > 2 fold
[2]
  GC signature score: significantly elevated
[3]
  logFC ACSL1: 1.43
  logFC CEBPD: 0.86
  logFC CRISPLD2: 0.94
  logFC DUSP1: 1.37
  logFC ECHDC3: 2.34
  logFC FAR2: 0.88
  logFC FKBP5: 2.85
  logFC HSPA6: 0.67
  logFC IRAK3: 1.45
  logFC IRS2: 1.75
  logFC MAN2A2: 0.91
  logFC PHC2: 1.15
  logFC SLA: 0.98
  logFC SPTLC2: 0.75
  logFC TLR2: 1.11
  logFC TSC22D3: 1.08
  logFC ZBTB16: 2.04
[4]; 5, 10 or 30 mg prednisolone
  time of peak of GC gene signature score post-dose: 4 h
[4]; all but the highest dose of prednisolone
  time by which GC gene signature scores had returned to baseline: ≤ 8 h
[4]; all groups
  time by which signature score was at baseline levels: ≤ 48 h
[4]; normal healthy volunteers, 5, 10 or 30 mg prednisolone (FIG. 3B)
  GC gene signature score, dose dependence: increased dose dependently

## C[C@]12C=CC(=O)C=C1CC[C@@H]1[C@@H]2C(=O)C[C@@]2(C)[C@H]1CC[C@]2(O)C(=O)CO [prednisone]
[5]
  glucocorticoid gene signature scores versus reported dose: generally aligned well with reported prednisone dose
